The record followed here is BindingDB's records for doi:10.1021/jm00119a003 (Northeastern University, 1988).

This experiment concerns the target D(1A) dopamine receptor (Canis familiaris). As to the kind of experiment: Ability to inhibit the binding of [3H]-SCH- 23390 to canine striatal membrane.

Usually Kd stands for the free concentration of one partner at which half of the binding sites on the other are occupied at equilibrium, for simple one-to-one binding. High values mean a looser complex, low ones a tighter complex. `CN1CCc2cc(I)c(O)cc2C(c2ccc(N=[N+]=[N-])cc2)C1` (stereo unspecified) [5-(4-Azido-phenyl)-8-iodo-3-methyl-2,3,4,5-tetrahydro-1H-benzo[d]azepin-7-ol] registered a Kd of 150 pM.
